Laboratory results: publication PMC7852567, “A first-in-human phase 1 and pharmacological study of TAS-119, a novel selective Aurora A kinase inhibitor in patients with advanced solid tumours” (British Journal of Cancer, 2020)

Test system: patients with advanced, refractory, solid tumours
Test: First-in-human phase 1 study: safety, tolerability, DLT, MTD, RP2D
Type: in vivo
Conditions: for DLT events in words: cycle 1
Description: This multicentre study (six centres) consisted of a dose escalation part with a 3 + 3 design to explore safety and tolerability. Patients were enrolled into predefined dose levels (DLs; 70, 150, 200, 250, 300 mg BID) utilising a 4 days on/3 days off schedule 3 out of 4 weeks (intermittent schedule). The rationale for this intermittent schedule was based on pre-clinical data showing a more favourable toxicity profile, compared to continuous dosing regimens while maintaining antitumour activity. In addition to the 4 days on/3 days off, 3 out of 4 weeks schedule, a continuous dosing (200 mg BID) schedule with the same weekly schedule (4 days on/3 days off) administered 4 out of 4 weeks, was explored in the escalation phase. A minimum of 3 patients were to be treated at each DL, and at least 6 patients were planned to be enrolled at the MTD level. The MTD was defined as the highest DL at which <33% of patients experienced a dose-limiting toxicity (DLT) during cycle 1. The RP2D was defined as a dose below or equal to the MTD based on the evaluation of all available information (tolerability in cycles after cycle 1, PK, PD or other safety information). The RP2D was used in the expansion part of this study. Based on the safety profile assessed in the dose escalation part of this study, either the intermittent (3 out of 4 weeks) or the continuous dosing schedule (4 out of 4 weeks) could be selected.
TAS-119 was administered orally BID as tablets of 25 and 100 mg strength, on an empty stomach. Based on rodent toxicology data, 70 mg BID was determined as the starting dose after conversion from the severely toxic dose in 10% of exposed animals (STD10) (63 mg/kg BID) to one tenth of the human equivalent dose. […] Non-haematological DLTs consisted of grade ≥3 toxicity (excluding nausea/vomiting lasting <48 h and controlled by anti-emetic therapy, diarrhoea lasting <48 h and responsive to anti-diarrhoea medication or hypersensitivity reactions), whereas haematological DLT consisted of any grade 4 neutropenia lasting >7 days, any febrile neutropenia (documented absolute neutrophil count <1000/mm^3) lasting >1 h, any grade 4 thrombocytopenia or grade 3 thrombocytopenia associated with bleeding and requiring blood transfusion.
Vital sign assessment, blood cell count, serum biochemistry, coagulation parameters, urinalysis, a 12-lead electrocardiogram and, if applicable, a pregnancy test were performed at baseline. In addition, after the amendment of the protocol (Amendment 2: 31-March-2015) an ophthalmologic assessment, including visual acuity, pupil shape and pupillary reflexes, extraocular motility (eye movement) and alignment, tonometry, visual field, external examination, slit-lamp examination, and fundoscopy, was performed and repeated in all patients on days 8 and 22 during cycle 1 and on day 1 of every subsequent cycle, beginning with cycle 3. This was a consequence of ocular toxicity observed in 2 out of 26 patients until that moment.
Adverse events (AEs) at baseline and during the study were recorded and graded based on the Common Terminology Criteria for Adverse Events v4.03. Tumour measurements were done at the end of every second cycle or as per the Institutional standard of care in case of clinical indications. Response were assessed using Response Evaluation Criteria in Solid Tumours (RECIST) v1.1.[19]

Q: For `Cc1cc(Nc2nc(CC3(C(=O)O)CCN(C(=O)c4cccc(Cl)c4Cl)CC3)ccc2F)n[nH]1` [TAS-119], which “maximum tolerated dose (MTD)” value (4 days on/3 days off, 3 out of 4 weeks) is on record?
A: 250 mg BID

Q: And the “DLT events in words” value (DL 2.2, 250 mg BID)?
A: one patient with grade 2 AEs of fatigue, corneal epithelial microcysts and nausea

Q: What about the “DLT events in words” value (DL 3, 300 mg BID, 2 patients) of the same molecule?
A: SAE of corneal microcysts, grade 2 and 3

Q: And the “AE with the outcome of death” value (escalation part, one patient at DL 2 (150 mg BID), disease progression, deemed not study treatment related)?
A: 3%

Q: What about the “AEs with the outcome of death” value (expansion part) of the same molecule?
A: No AEs with the outcome of death

Q: What about the “AE: Alkaline phosphatase increase” value (human, in vivo) of the same molecule?
A: 7 (17.5) n, %

Q: What about the “AE: Amylase increase” value (human, in vivo) of the same molecule?
A: 4 (10.0) n, %

Q: What about the “AE: Gamma-glutamyltransferase increase” value (human, in vivo) of the same molecule?
A: 7 (17.5) n, %

Q: What about the “AE: Headache” value (human, in vivo) of the same molecule?
A: 5 (12.5) n, %

Q: What about the “AE: Hyperglycaemia” value (human, in vivo) of the same molecule?
A: 5 (12.5) n, %

Q: And the “AE: Hypoalbuminaemia” value (human, in vivo)?
A: 5 (12.5) n, %

Q: What about the “AE: Hypokalaemia” value (human, in vivo) of the same molecule?
A: 4 (10.0) n, %

Q: What about the “AE: Hypotension” value (human, in vivo) of the same molecule?
A: 5 (14.7) n, %

Q: And the “AE: Pruritis” value (human, in vivo)?
A: 4 (10.0) n, %

Q: And the “AE: Upper respiratory tract infection” value (human, in vivo)?
A: 5 (12.5) n, %

Q: What about the “AE: Urinary tract infection” value (human, in vivo) of the same molecule?
A: 6 (15.0) n, %

Q: What about the “AE: Weight loss” value (human, in vivo) of the same molecule?
A: 4 (11.8) n, %

Q: And the “AEs leading to discontinuation of study drug” value (human, in vivo)?
A: 12%

Q: What about the “AEs leading to discontinuation of the study drug” value (human, in vivo) of the same molecule?
A: 8%

Q: What about the “dose dependence of ocular toxicity” value (human, in vivo) of the same molecule?
A: dose dependent and only seen at doses of 200 mg BID and above

Q: And the “grade ≥3 diarrhoea” value (human, in vivo)?
A: 5/74

Q: What about the “grade ≥3 increased lipase without symptoms of pancreatitis” value (human, in vivo) of the same molecule?
A: 9/74

Q: What about the “ocular side effects, in total” value (human, in vivo) of the same molecule?
A: 9 patients

Q: What about the “ocular toxicity throughout the various DLs” value (human, in vivo) of the same molecule?
A: 38 % of the patients

Q: And the “recommended phase 2 dose (RP2D)” value (human, in vivo)?
A: 200 mg BID

Q: And the “treatment-related AEs leading to discontinuation of study drug” value (human, in vivo)?
A: 9%

Q: What about the “patients with DLT during cycle 1” value (in vivo) of the same molecule?
A: Five

Q: And the “patients with an ocular DLT” value (in vivo)?
A: four

Q: And the “treatment-related AEs leading to discontinuation of the study drug” value (in vivo)?
A: none
